In this experiment the target is Mutant B-Raf (V600E) enzyme (MT B-Raf) (Homo sapiens, UniProt P15056, V600E). Description: biochemical.
Where [1] appears, read: B-Raf Alpha screen comparable to the described assay, phosphorylation of biotinylated HIS-MEK-AVI, results may be an average of two or more results.

The structures appear in SMILES notation. Where two headings read alike, the source gives them in different places.

Experimental findings from patent US20100216791A1, “PYRIDINYLQUINAZOLINAMINE DERIVATIVES AND THEIR USE AS B-RAF INHIBITORS” (ASTRAZENECA, priority 2006, published 2010) are described below.

One may read the IC50 as the concentration at which inhibition is half-maximal. The low end stands for greater potency, the high end for weaker potency.

Mutant B-Raf (V600E) enzyme (MT B-Raf), sequence (P15056 whole entry V600E): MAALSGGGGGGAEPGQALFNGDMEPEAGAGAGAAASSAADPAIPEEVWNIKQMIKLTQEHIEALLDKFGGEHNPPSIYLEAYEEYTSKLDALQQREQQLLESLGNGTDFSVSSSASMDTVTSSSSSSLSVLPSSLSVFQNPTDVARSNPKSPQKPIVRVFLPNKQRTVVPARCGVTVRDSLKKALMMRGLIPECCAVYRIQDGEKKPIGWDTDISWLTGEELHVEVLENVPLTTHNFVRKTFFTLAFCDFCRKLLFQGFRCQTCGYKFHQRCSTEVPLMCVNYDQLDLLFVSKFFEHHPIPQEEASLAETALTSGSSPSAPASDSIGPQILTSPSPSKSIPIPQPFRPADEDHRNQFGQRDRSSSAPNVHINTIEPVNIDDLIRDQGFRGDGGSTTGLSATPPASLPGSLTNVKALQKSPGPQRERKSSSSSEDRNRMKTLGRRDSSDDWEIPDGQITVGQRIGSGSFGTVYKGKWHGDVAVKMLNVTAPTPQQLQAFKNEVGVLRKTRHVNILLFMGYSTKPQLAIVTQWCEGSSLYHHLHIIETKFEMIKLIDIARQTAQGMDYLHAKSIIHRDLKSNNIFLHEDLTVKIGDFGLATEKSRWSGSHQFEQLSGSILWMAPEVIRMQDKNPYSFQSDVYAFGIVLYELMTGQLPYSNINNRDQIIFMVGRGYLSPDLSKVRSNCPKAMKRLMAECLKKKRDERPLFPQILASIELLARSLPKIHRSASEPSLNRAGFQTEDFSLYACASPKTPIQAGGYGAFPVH

The compound `CS(=O)(=O)c1cccc(Nc2ncc3cc(-c4ccncc4)ccc3n2)c1` [Example 104, N-[3-(Methylsulfonyl)phenyl]-6-pyridin-4-ylquinazolin-2-amine] had an IC50 under setting [1] of 0.16 µM. For `c1cc(-c2ccc3nc(Nc4ccc(N5CCOCC5)nc4)ncc3c2)ccn1` [Example 90, N-(6-Morpholin-4-ylpyridin-3-yl)-6-pyridin-4-ylquinazolin-2-amine], the IC50 under setting [1] turned out to be 0.11 µM. Under setting [1], `Cc1cc(Nc2ncc3cc(-c4ccncc4)ccc3n2)ccc1C(C)N(C)P(C)(C)=O` (stereo not shown) [Example 130] displayed an IC50 of 0.12 µM. The IC50 values of the last two compounds are within 1.5-fold of each other.

The compound `O=C(NC1CCNCC1)c1ccc(Nc2ncc3cc(-c4ccncc4)ccc3n2)cc1` [Example 67, N-Piperidin-4-yl-4-[(6-pyridin-4-ylquinazolin-2-yl)amino]benzamide] gave a half-maximal inhibitory concentration (IC50) under setting [1] of 0.11 µM. Under setting [1], `CCCNC(C)c1ccc(Nc2ncc3cc(-c4ccncc4)ccc3n2)cc1` (single isomer, unassigned) [Example 141] returned a concentration for half-maximal inhibition (IC50) of 0.034 µM. The compound `Cc1ccc(Nc2ncc3cc(-c4ccncc4)ccc3n2)cc1` [Example 106, N-(4-Methylphenyl)-6-pyridin-4-ylquinazolin-2-amine] gave a 50% inhibitory concentration (IC50) under setting [1] of 23 µM.

As for `COCCNC(=O)c1cccc(Nc2ncc3cc(-c4ccncc4)ccc3n2)n1` [Example 38, N-(2-Methoxyethyl)-6-[(6-pyridin-4-ylquinazolin-2-yl)amino]pyridine-2-carboxamide], half-maximal inhibition under setting [1] (IC50) required 1.5 µM. The compound `CNCCNC(=O)c1ccnc(Nc2ncc3cc(-c4ccncc4)ccc3n2)c1` [Example 66, N-[2-(Methylamino)ethyl]-2-[(6-pyridin-4-ylquinazolin-2-yl)amino]isonicotinamide] had a half-inhibitory concentration (IC50) under setting [1] of 0.7 µM. The compound `Cc1cccc(Nc2ncc3cc(-c4ccncc4)ccc3n2)c1` [Example 83, N-(3-Methylphenyl)-6-pyridin-4-ylquinazolin-2-amine] returned a half-inhibitory concentration (IC50) under setting [1] of 0.63 µM. The compound `O=C(NCC1CCCN1)c1ccc(Nc2ncc3cc(-c4ccncc4)ccc3n2)cc1` (stereo not shown) [Example 60, 4-[(6-Pyridin-4-ylquinazolin-2-yl)amino]-N-pyrrolidin-2-ylmethylbenzamide] gave a concentration for half-maximal inhibition (IC50) under setting [1] of 0.15 µM. For the compound `CC1(C)OCC(CNC(=O)c2ccc(Nc3ncc4cc(-c5ccncc5)ccc4n3)cc2)O1` (stereo not shown) [Example 16, N-[(2,2-Dimethyl-1,3-dioxolan-4-yl)methyl]-4-[(6-pyridin-4-ylquinazolin-2-yl)amino]benzamide], the IC50 under setting [1] is 0.2 µM. The IC50 values of the last two compounds are within 1.5-fold of each other. As to `CCN(CCO)Cc1ccc(Nc2ncc3cc(-c4ccncc4)ccc3n2)cc1` [Example 77, 2-(Ethyl{4-[(6-pyridin-4-ylquinazolin-2-yl)amino]benzyl}amino)ethanol], inhibition under setting [1] was half-maximal at 0.099 µM (IC50).

`CC(=O)c1ccc(Nc2ncc3cc(-c4ccncc4)ccc3n2)cc1` [Example 53, 1-{4-[(6-Pyridin-4-ylquinazolin-2-yl)amino]phenyl}ethanone] displayed an IC50 under setting [1] of 0.21 µM. On the same count and under the same terms, then `COCCNC(=O)c1ccc(Nc2ncc3cc(-c4ccnc(OC)c4)ccc3n2)cc1` [Example 115], with 0.52 µM. In turn, `O=S(=O)(c1cccc(Nc2ncc3cc(-c4ccncc4)ccc3n2)c1)N1CCOCC1` [Example 102, N-[3-(Morpholin-4-ylsulfonyl)phenyl]-6-pyridin-4-ylquinazolin-2-amine] had an IC50 under setting [1] of 0.52 µM. As for `O=C(NCC1CCCO1)c1ccc(Nc2ncc3cc(-c4ccncc4)ccc3n2)cc1` (stereo not shown) [Example 14, 4-[(6-Pyridin-4-ylquinazolin-2-yl)amino]-N-(tetrahydrofuran-2-ylmethyl)benzamide], under setting [1], the half-maximal inhibitory concentration (IC50) was 0.21 µM. Compound `Cc1cc(Nc2ncc3cc(-c4ccncc4)ccc3n2)ccc1C(=O)N(C)C` [Example 50] displayed an IC50 of 0.15 µM. That is a sub-micromolar value.

Under setting [1], `O=S(=O)(c1cccc(Nc2ncc3cc(-c4ccncc4)ccc3n2)c1)N1CCCC1` [Example 93, 6-Pyridin-4-yl-N-[3-(pyrrolidin-1-ylsulfonyl)phenyl]quinazolin-2-amine] had a half-inhibitory concentration (IC50) of 3 µM. This lies in the single-digit micromolar range. The compound `Fc1ccc(Nc2ncc3cc(-c4ccncc4)ccc3n2)cc1` [Example 105, N-(4-Fluorophenyl)-6-pyridin-4-ylquinazolin-2-amine] registered an IC50 under setting [1] of 1.2 µM. On the same count and under the same terms, as for `O=C(NCCN1CCCCC1)c1ccc(Nc2ncc3cc(-c4ccncc4)ccc3n2)cc1` [Example 27, N-(2-Piperidin-1-ylethyl)-4-[(6-pyridin-4-ylquinazolin-2-yl)amino]benzamide], the figure is 0.087 µM; as for `COCC(C)NC(=O)c1ccc(Nc2ncc3cc(-c4ccncc4)ccc3n2)cc1` (stereo not shown) [Example 32, N-(2-Methoxy-1-methylethyl)-4-[(6-pyridin-4-ylquinazolin-2-yl)amino]benzamide], 0.13 µM; as for `c1cc(-c2ccc3nc(Nc4ccc(OCCN5CCCCC5)cc4)ncc3c2)ccn1` [Example 42, N-[4-(2-Piperidin-1-ylethoxy)phenyl]-6-pyridin-4-ylquinazolin-2-amine], 0.23 µM. On to `CC(O)CCNC(=O)c1ccc(Nc2ncc3cc(-c4ccncc4)ccc3n2)cc1` (stereo not shown) [Example 34, N-(3-Hydroxybutyl)-4-[(6-pyridin-4-ylquinazolin-2-yl)amino]benzamide], for which 0.27 µM corresponded to half-maximal inhibition under setting [1] (IC50). As for `CC(c1ccc(Nc2ncc3cc(-c4ccncc4)ccc3n2)cc1)N(C)CCO` (stereo not shown) [Example 134], it took 0.035 µM to reach half-maximal inhibition under setting [1] (IC50). This IC50 lies about 7.7-fold lower than the previous one. As to `CC(C)NCCNC(=O)c1ccc(Nc2ncc3cc(-c4ccncc4)ccc3n2)cc1` [Example 28, N-[2-(Isopropylamino)ethyl]-4-[(6-pyridin-4-ylquinazolin-2-yl)amino]benzamide], the half-inhibitory concentration (IC50) under setting [1] was 0.14 µM. Compound `c1cc(Nc2ncc3cc(-c4ccncc4)ccc3n2)cc(N2CCOCC2)c1` [Example 85, N-(3-Morpholin-4-ylphenyl)-6-pyridin-4-ylquinazolin-2-amine] displayed an IC50 under setting [1] of 0.39 µM. This IC50 lies about 2.8-fold higher than the previous one. On to `CNCCNC(=O)c1cccc(Nc2ncc3cc(-c4ccncc4)ccc3n2)n1` [Example 65, N-[2-(Methylamino)ethyl]-6-[(6-pyridin-4-ylquinazolin-2-yl)amino]pyridine-2-carboxamide], for which, under setting [1], the concentration for half-maximal inhibition (IC50) came to 1 µM. Compared with the last compound, the IC50 is about 2.6-fold higher.

Under setting [1], `O=C(NCCc1ccccn1)c1ccc(Nc2ncc3cc(-c4ccncc4)ccc3n2)cc1` [Example 20, N-(2-Pyridin-2-ylethyl)-4-[(6-pyridin-4-ylquinazolin-2-yl)amino]benzamide] yielded an IC50 of 0.25 µM.

With `Cc1cc(Nc2ncc3cc(-c4ccncc4)ccc3n2)ccc1C(=O)NCCN1CCOCC1` [Example 33, 2-Methyl-N-(2-morpholin-4-ylethyl)-4-[(6-pyridin-4-ylquinazolin-2-yl)amino]benzamide], the IC50 under setting [1] turned out to be 0.16 µM. This IC50 is about 1.6-fold lower than that of the compound before. Compound `c1cnn(-c2ccc(Nc3ncc4cc(-c5ccncc5)ccc4n3)cc2)c1` [Example 108, N-[4-(1H-Pyrazol-1-yl)phenyl]-6-pyridin-4-ylquinazolin-2-amine] displayed a 50% inhibitory concentration (IC50) under setting [1] of 0.25 µM. `CN1CCN(C(=O)c2ccc(Nc3ncc4cc(-c5ccncc5)ccc4n3)cc2)CC1` [Example 120] came in with a concentration for half-maximal inhibition (IC50) under setting [1] of 0.056 µM. Under setting [1], `c1cc(-c2ccc3nc(Nc4ccc(CNCCN5CCOCC5)cc4)ncc3c2)ccn1` [Example 70, N-(4-{[(2-Morpholin-4-ylethyl)amino]methyl}phenyl)-6-pyridin-4-ylquinazolin-2-amine] had an IC50 of 0.074 µM. This IC50 and that of the compound before are within 1.5-fold of each other. Under setting [1], `COCCNC(=O)c1ccc(Nc2ncc3cc(-c4ccncc4)ccc3n2)cc1Cl` [Example 10, 2-Chloro-N-(2-methoxyethyl)-4-[(6-pyridin-4-ylquinazolin-2-yl)amino]benzamide] returned a concentration for half-maximal inhibition (IC50) of 0.35 µM.

`O=C(NCCO)c1ccc(Nc2ncc3cc(-c4ccncc4)ccc3n2)cc1` [Example 7, N-(2-Hydroxyethyl)-4-[(6-pyridin-4-ylquinazolin-2-yl)amino]benzamide] had an IC50 under setting [1] of 0.14 µM. In the case of `CNC(=O)c1ccc(Nc2ncc3cc(-c4ccncc4)ccc3n2)cc1` [Example 17, N-Methyl-4-[(6-pyridin-4-ylquinazolin-2-yl)amino]benzamide], the IC50 under setting [1] is 0.079 µM. This IC50 is about 1.8-fold lower than that of the compound before.

In turn, `CC(NCC1CC1)c1ccc(Nc2ncc3cc(-c4ccncc4)ccc3n2)cc1` (stereo not shown) [Example 136, N-(4-{1-[(Cyclopropylmethyl)amino]ethyl}phenyl)-6-pyridin-4-ylquinazolin-2-amine] had an IC50 under setting [1] of 0.037 µM. Under setting [1], `NCCCNC(=O)c1ccc(Nc2ncc3cc(-c4ccncc4)ccc3n2)cc1` [Example 62, N-(3-Aminopropyl)-4-[(6-pyridin-4-ylquinazolin-2-yl)amino]benzamide] came in with an IC50 of 0.093 µM. On the same count and under the same terms, then `OCCc1ccc(Nc2ncc3cc(-c4ccncc4)ccc3n2)cc1` [Example 52, 2-{4-[(6-Pyridin-4-ylquinazolin-2-yl)amino]phenyl}ethanol], with 0.12 µM; and `COc1cc(Nc2ncc3cc(-c4ccncc4)ccc3n2)ccc1C` [Example 87, N-(3-Methoxy-4-methylphenyl)-6-pyridin-4-ylquinazolin-2-amine], with 2.2 µM; and `CC(=O)N1CCN(C(=O)c2ccc(Nc3ncc4cc(-c5ccncc5)ccc4n3)cc2)CC1` [Example 119], with 0.064 µM.

Under setting [1], `FC(F)(F)Oc1ccc(Nc2ncc3cc(-c4ccncc4)ccc3n2)cc1` [Example 99, 6-Pyridin-4-yl-N-[4-(trifluoromethoxy)phenyl]quinazolin-2-amine] registered an IC50 of 1.1 µM. This IC50 lies about 17-fold higher than the previous one. Turning to `CNCCCNC(=O)c1ccc(Nc2ncc3cc(-c4ccncc4)ccc3n2)cc1` [Example 59, N-[3-(Methylamino)propyl]-4-[(6-pyridin-4-ylquinazolin-2-yl)amino]benzamide], the IC50 under setting [1] came to 0.069 µM. For the compound `O=C(NCCCN1CCCC1=O)c1ccc(Nc2ncc3cc(-c4ccncc4)ccc3n2)cc1` [Example 21, N-[3-(2-Oxopyrrolidin-1-yl)propyl]-4-[(6-pyridin-4-ylquinazolin-2-yl)amino]benzamide], the IC50 under setting [1] came to 0.2 µM.

`CC(c1ccc(Nc2ncc3cc(-c4ccncc4)ccc3n2)cc1)N(C)C` (single isomer, unassigned) [Example 139] came in with a half-maximal inhibitory concentration (IC50) under setting [1] of 0.036 µM. On to `O=C(NCC1CCCCN1)c1ccc(Nc2ncc3cc(-c4ccncc4)ccc3n2)cc1` (stereo not shown) [Example 68, N-Piperidin-2-ylmethyl-4-[(6-pyridin-4-ylquinazolin-2-yl)amino]benzamide], for which, under setting [1], the IC50 stood at 0.11 µM. Same read-out and setting: then `CC(c1ccc(Nc2ncc3cc(-c4ccncc4)ccc3n2)cc1)N(C)CCCO` (stereo not shown) [Example 135], with 0.029 µM.
